The source of these data is patent US20260076973A1 (priority 2023, published 2026).

Where a name gives a salt, the structure may show the parent alone. Read-outs that look alike come from different tables or passages of the source.

The assay has as its system SARS-CoV-2 (WA1). Put plainly: microbe, parasite or virus in culture. The class given is cell-based.
Where [1] appears, read: Severe acute respiratory syndrome coronavirus 2, Vero C1008, VIRADEM compounds, SARS-CoV-2(WA1) CPE assay, Round 2, concentration range 1000-0.05 nM, Vero E6, read-out: IC50.
Setting [2] is: VIRADEM compounds, SARS-CoV-2(WA1) CPE assay, Round 2, concentration range 1000-0.05 nM, Vero E6, read-out: IC50.
The mark [3] stands for this setting: Severe acute respiratory syndrome coronavirus 2, Vero C1008.

Regarding `CC(=O)c1cccc(Nc2nc(Nc3cccc(C)c3)nc(N3CCOCC3)n2)c1` [VIRADEM-11778, 1-[3-(4-Morpholin-4-yl-6-m-tolylamino-[1,3,5]triazin-2-ylamino)-phenyl]-ethanone hydrochloride], the IC50 under setting [1] is 320 nM.

Consider `Cc1cccc(N2C(N3CCOCC3)=NC(N)=NC2Nc2cccc(Cl)c2)c1` (centres unmarked) [VIRADEM-11781, N-(3-Chlorophenyl)-6-morpholin-4-yl-N^1-m-tolyl-[1,3,5]triazine-2,4-diamine hydrochloride], for which the IC50 under setting [1] amounted to 110 nM.

On to `Cc1ccc(N2C(N3CCOCC3)=NC(N)=NC2Nc2cccc(F)c2)cc1` (centres unmarked) [VIRADEM-11785, N-(3-Fluorophenyl)-6-morpholin-4-yl-N^1-p-tolyl-[1,3,5]triazine-2,4-diamine hydrochloride], for which, under setting [1], the IC50 is 170 nM.

For the compound `Cc1cccc(N2C(N3CCOCC3)=NC(N)=NC2Nc2cccc(F)c2)c1` (centres unmarked) [VIRADEM-11786, N-(3-Fluorophenyl)-6-morpholin-4-yl-N^1-m-tolyl-[1,3,5]triazine-2,4-diamine hydrochloride], under setting [1], the IC50 came out at 380 nM.

Consider `Cc1cccc(N2C(N3CCOCC3)=NC(N)=NC2Nc2ccc(F)cc2)c1` (centres unmarked) [VIRADEM-11787, N-(4-Fluorophenyl)-6-morpholin-4-yl-N^1-m-tolyl-[1,3,5]triazine-2,4-diamine hydrochloride], for which, under setting [1], the IC50 came to 360 nM.

For the compound `CCOc1ccc(NC2N=C(N)N=C(N3CCOCC3)N2c2cccc(C)c2)cc1` (centres unmarked) [VIRADEM-11794, N-(4-Ethoxyphenyl)-6-morpholin-4-yl-N^1-m-tolyl-[1,3,5]triazine-2,4-diamine hydrochloride], the IC50 under setting [1] turned out to be 270 nM.

On to `Cc1ccc(NC2N=C(N)N=C(N3CCCC3)N2c2ccc(F)cc2)cc1C` (centres unmarked) [VIRADEM-11809, N-(3,4-Dimethylphenyl)-N^1-(4-fluorophenyl)-6-pyrrolidin-1-yl-[1,3,5]triazine-2,4-diamine hydrochloride], for which the IC50 under setting [1] was more than 1000 nM.

Consider `CC(=O)c1cccc(Nc2nc(Nc3ccc(Cl)cc3)nc(N3CCOCC3)n2)c1` [VIRADEM-11882, 1-{3-[4-(4-chlorophenylamino)-6-morpholin-4-yl-[1,3,5]triazin-2-ylamino]-phenyl}-ethanone], for which, under setting [1], the IC50 stood at 120 nM.

Consider `CC(=O)c1cccc(Nc2nc(Nc3ccc(F)cc3)nc(N3CCOCC3)n2)c1` [VIRADEM-11883, 1-{3-[4-(4-Fluorophenylamino)-6-morpholin-4-yl-[1,3,5]triazin-2-ylamino]-phenyl}-ethanone hydrochloride], for which the IC50 under setting [1] was more than 1000 nM.

Consider `CCOC(=O)c1ccc(Nc2nc(Nc3ccc(C)c(C)c3)nc(N3CCOCC3)n2)cc1` [VIRADEM-11913, 4-[4-(3,4-Dimethylphenylamino)-6-morpholin-4-yl-[1,3,5]-2-ylamino]-benzoic acid ethyl ester], for which the 50% inhibitory concentration (IC50) under setting [2] is 40 nM.

Under setting [3], `Cc1ccc(Nc2nc(Nc3cccc(C(F)(F)F)c3)nc(N3CCOCC3)n2)cc1C` [VIRADEM-11914, N-(3,4-Dimethylphenyl)-6-morpholin-4-yl-N^1-(3-trifluoromethylphenyl)-[1,3,5]triazine-2,4-diamine] had an IC50 of 130 nM.

`CCCCc1ccc(Nc2nc(Nc3cccc(C(C)=O)c3)nc(N3CCOCC3)n2)cc1` [VIRADEM-12037, 1-{3-[4-(4-Butylphenylamino)-6-morpholin-4-yl-[1,3,5]triazin-2-ylamino]-phenyl}-ethanone]: the IC50 under setting [1] was more than 1000 nM.

For `CCOc1cccc(N2C(N3CCCC3)=NC(N)=NC2Nc2ccc(C)c(C)c2)c1` (centres unmarked) [VIRADEM-12185, N-(3,4-Dimethylphenyl)-N^1-(3-ethoxyphenyl)-6-pyrrolidin-1-yl-[1,3,5]triazine-2,4-diamine hydrochloride], the IC50 under setting [1] is more than 1000 nM.

As to `CC(=O)c1cccc(Nc2nc(Nc3cccc(Cl)c3)nc(N3CCOCC3)n2)c1` [VIRADEM-12188, 1-{3-[4-(3-Chlorophenylamino)-6-morpholin-4-yl-[1,3,5]triazin-2-ylamino]-phenyl}-ethanone], the half-maximal inhibitory concentration (IC50) under setting [1] was found to be 320 nM.

With `Cc1cccc(Nc2nc(Nc3ccc(C(C)C)cc3)nc(N3CCOCC3)n2)c1` [VIRADEM-12251, N-(4-Isoproylphenyl)-6-morpholin-4-yl-N^1-m-tolyl-[1,3,5]triazine-2,4-diamine hydrochloride], under setting [2], the IC50 stood at 560 nM.

Turning to `COc1cccc(NC2N=C(N)N=C(N3CCOCC3)N2c2ccccc2)c1` (centres unmarked) [VIRADEM-12252, N-(3-Methoxyphenyl)-6-morpholin-4-yl-N^1-phenyl-[1,3,5]triazine-2,4-diamine hydrochloride], the IC50 under setting [1] came to 110 nM.

As for `Cc1ccc(Nc2nc(Nc3ccc(C(C)C)cc3)nc(N3CCOCC3)n2)cc1` [VIRADEM-12253, N-(4-Isoproylphenyl)-6-morpholin-4-yl-N^1-p-tolyl-[1,3,5]triazine-2,4-diamine hydrochloride], under setting [2], the IC50 was 510 nM.

Regarding `COc1ccccc1N1C(N2CCOCC2)=NC(N)=NC1Nc1cc(C)cc(C)c1` (centres unmarked) [VIRADEM-12270, N-(3,5-Dimethylphenyl)-N^1-(2-methoxyphenyl)-6-morpholin-4-yl-[1,3,5]triazine-2,4-diamine hydrochloride], the IC50 under setting [1] stood at 380 nM.

As for `Cc1cc(C)cc(N2C(N3CCCC3)=NC(N)=NC2Nc2cccc(Cl)c2)c1` (centres unmarked) [VIRADEM-12278, N-(3-Chlorophenyl)-N^1-(3,5-dimethylphenyl)-6-pyrrolidin-1-yl-[1,3,5]triazine-2,4-diamine hydrochloride], the IC50 under setting [1] is more than 1000 nM.

In the case of `Cc1ccc(Nc2nc(Nc3cccc(F)c3)nc(N3CCOCC3)n2)cc1Cl` [VIRADEM-12292, N-(3-Chloro-4-methylphenyl)-N^1-(3-fluorophenyl)-6-morpholin-4-yl-[1,3,5]triazine-2,4-diamine], under setting [3], it took 150 nM to reach half-maximal inhibition (IC50).

Consider `CC(=O)c1cccc(Nc2nc(Nc3ccc(C(C)C)cc3)nc(N3CCOCC3)n2)c1` [VIRADEM-12305, 1-{3-[4-(4-Isopropylphenylamino)-6-morpholin-4-yl-[1,3,5]triazin-2-ylamino]-phenyl}-ethanone], for which the half-inhibitory concentration (IC50) under setting [1] stood at 450 nM.

On to `CC(C)c1ccc(Nc2nc(N3CCCC3)nc(N3CCCC3)n2)cc1` [VIRADEM-12307, (4,6-Dipyrrolidin-1-yl-[1,3,5]triazin-2-yl)-(4-isopropylphenyl)-amine hydrochloride], for which the IC50 under setting [1] is more than 1000 nM.

With `CCc1ccc(Nc2nc(Nc3cc(Cl)cc(Cl)c3)nc(N3CCOCC3)n2)cc1` [VIRADEM-12327, N-(3,5-Dichlorophenyl)-N^1-(4-ethylphenyl)-6-morpholin-4-yl-[1,3,5]triazine-2,4-diamine], under setting [1], the IC50 is 730 nM.

As for `COC(=O)c1ccc(Nc2nc(Nc3cccc(OC)c3)nc(N3CCOCC3)n2)cc1` [VIRADEM-12329, 4-[4-(3-Methoxyphenylamino)-6-morpholin-4-yl-[1,3,5]triazin-2-ylamino]-benzoic acid methyl ester], the IC50 under setting [1] was determined as 20 nM.

Take `Cc1ccccc1Nc1nc(N2CCOCC2)nc(N2CCOCC2)n1` [VIRADEM-12434, (4,6-Dimorpholin-4-yl-[1,3,5]triazin-2-yl)-o-tolyl-amine]: the concentration for half-maximal inhibition (IC50) under setting [1] was more than 1000 nM.

As for `CC(C)c1ccc(Nc2nc(N3CCOCC3)nc(N3CCOCC3)n2)cc1` [VIRADEM-12435, (4,6-Dimorpholin-4-yl-[1,3,5]triazin-2-yl)-(4-isopropylphenyl)-amine], the concentration for half-maximal inhibition (IC50) under setting [1] is more than 1000 nM.

Turning to `CC(C)(C)c1nnc(N2CCOCC2)nc1Nc1ccccc1` [VIRADEM-13044, (6-tert-Butyl-3-morpholin-4-yl-[1,2,4]triazin-5-yl)-phenyl-amine], the concentration for half-maximal inhibition (IC50) under setting [1] was more than 1000 nM.

For `COc1ccc(CC(=O)N(N)c2nc(N3CCOCC3)nc(N3CCOCC3)n2)cc1` [VIRADEM-14302, (4-Methoxyphenyl)-acetic acid N1-(4,6-dimorpholin-4-yl-[1,3,5]triazin-2-yl)-hydrazide], the IC50 under setting [1] is more than 1000 nM.

With `Clc1ccccc1Nc1nc(Nc2ccccc2Cl)nc(N2CCOCC2)n1` [VIRADEM-14303, N,N^1-bis-(2-chlorophenyl)-6-morpholin-4-yl-[1,3,5]triazine-2,4-diamine], the 50% inhibitory concentration (IC50) under setting [3] is more than 1000 nM.

For `C1CCC(Nc2nc(N3CCOCC3)nc(N3CCOCC3)n2)C1` [VIRADEM-14309, Cyclopentyl-(4,6-dimorpholin-4-yl-[1,3,5]triazin-2-yl)-amine], under setting [1], the IC50 is more than 1000 nM.

On to `Clc1ccc(Oc2nc(N3CCOCC3)nc(N3CCOCC3)n2)cc1` [VIRADEM-15106, 2-(4-Chlorophenoxy)-4,6-dimorpholin-4-yl-[1,3,5]triazine], for which the IC50 under setting [1] is more than 1000 nM.

`Cc1ccc(Nc2nc(N3CCOCC3)nc(N(C)c3ccccc3)n2)cc1C` [VIRADEM-15168, N-(3,4-Dimethylphenyl)-N^1-methyl-6-morpholin-4-yl-N^1-phenyl-[1,3,5]triazine-2,4-diamine]: the half-maximal inhibitory concentration (IC50) under setting [2] worked out at 180 nM.

Turning to `c1ccc(CN2CCN(c3nc(N4CCOCC4)nc(N4CCOCC4)n3)CC2)cc1` [VIRADEM-15199, 2-(4-Benzylpiperazin-1-yl)-4,6-dimorpholin-4-yl-[1,3,5]triazine], the IC50 under setting [1] is more than 1000 nM.

Consider `c1cc2c(cc1CNc1nc(N3CCOCC3)nc(N3CCOCC3)n1)OCO2` [VIRADEM-15201, Benzo[1,3]dioxol-5-ylmethyl-(4,6-dimorpholin-4-yl-[1,3,5]triazin-2-yl)-amine], for which the half-inhibitory concentration (IC50) under setting [1] is more than 1000 nM.

On to `c1ccc(CNc2nc(N3CCOCC3)nc(N3CCOCC3)n2)cc1` [VIRADEM-15209, Benzyl-(4,6-dimorpholin-4-yl-[1,3,5]triazin-2-yl)-amine], for which the IC50 under setting [1] is more than 1000 nM.

In the case of `COc1ccc(Nc2nc(N3CCOCC3)nc(N3CCC(C)CC3)n2)cc1` [VIRADEM-15220, (4-Methoxyphenyl)-[4-(4-methylpiperidin-1-yl)-6-morpholin-4-yl-[1,3,5]triazin-2-yl]amine], under setting [1], the IC50 was more than 1000 nM.

As for `Cc1ccc(Nc2nc(N3CCCCCC3)nc(N3CCOCC3)n2)cc1` [VIRADEM-15229, (4-Azepan-1-yl-6-morpholin-4-yl-[1,3,5]triazin-2-yl)-p-tolyl-amine], the IC50 under setting [1] was 850 nM.

For `c1ccc(CCNc2nc(N3CCOCC3)nc(N3CCOCC3)n2)cc1` [VIRADEM-15230, (4,6-Dimorpholin-4-yl-[1,3,5]triazin-2-yl)-phenetylamine], the 50% inhibitory concentration (IC50) under setting [2] was 460 nM.
